Test results: patent publication US20260000655A1, “PHARMACEUTICAL COMPOSITION FOR USE IN PREVENTION OR TREATMENT OF LIFESTYLE-RELATED DISEASE” (priority 2022, published 2026)

Experiments:
[1] = system: GLUT4 (glucose transporter type 4); test: Promotion of GLUT4 membrane translocation in L6-GLUT4myc; type: cell-based, rat; details: HPH-15 10 μM (1/200th of metformin 2 mM; insulin 100 nM), 24 hours
Method: GLUT4 (glucose transporter type 4) is involved in the uptake of glucose into cells. Thus, the relationship between HPH-15 and the membrane translocation of GLUT4 was examined using the myotube cell model L6-GLUT4myc.
The myotube cell model L6-GLUT4myc cells used in Example 1 were seeded onto a 24-well plate (1×10^5 cells/well, […] of culture liquid) and cultured overnight. Then, a DMSO solution (1%) containing HPH-15 (final concentration: 10 μM), metformin (final concentration: 2 mM), or insulin (final concentration: 100 nM) was added to the medium, and the cells were further cultured for 24 hours. As a control, only DMSO solution (1%) was added, and the cells were cultured for 24 hours in the same manner. Next, each cell was fixed for 20 minutes with a 3% paraformaldehyde solution (Tokyo Chemical Industry Co., Ltd.). The reaction was stopped with an 1% glycine solution (Merck KGaA), and blocking was performed for 15 minutes using a PBS solution containing 5% goat serum (FUJIFILM Wako Pure Chemical Corp.). […] Detection was performed using OPD reagent (o-phenylenediamine dihydrochloride: FUJIFILM Wako Pure Chemical Corp.), and the amount of GLUT4 was evaluated by measuring absorbance (492 nm).

[2] = system: high-fat diet-induced obesity model mice; test: Blood test value in mouse; type: in vivo; details: HPH-15 10 or 100 mg/kg orally 28 days
Method: High-fat diet-induced obesity model mice were prepared in the same manner as in Example 7. Then, […] of olive oil (Kenei Pharmaceutical Co., Ltd.) as a solvent, HPH-15 (10 mg/kg or 100 mg/kg, […]) dissolved in olive oil, or metformin (300 mg/kg, […]) was orally administered once a day for 28 days. After administration of each for 28 days, the blood from the high-fat diet-induced obesity model mice was examined at the Kumamoto Mouse Clinic (Kumamoto National University Corp.).

[3] = system: high-fat diet-induced obesity model mice; test: Glucose loading test in mouse; type: in vivo; details: HPH-15 10 mg/kg or 100 mg/kg orally, 28 days; glucose 0.5 g/kg intraperitoneally; compared to olive oil
Method: The effect of HPH-15 on the change in blood glucose levels in the presence of glucose was examined using mice.
High-fat diet-induced obesity model mice were prepared in the same manner as in Example 7. Then, HPH-15 (10 mg/kg or 100 mg/kg, […]) dissolved in olive oil or metformin (300 mg/kg, […]) was orally administered once a day for 28 days. Olive oil alone was administered as a control. After 28 days of administration of each, glucose was intraperitoneally administered (0.5 g/kg) to the high-fat diet-induced obesity model mice, and blood glucose levels (mg/dl) were measured at 0, 15, 30, 60, 90, and 120 minutes after administration using a blood glucose meter Glutest Aqua (Sanwa Kagaku Kenkyusho Co., Ltd.).

[4] = system: myotube cell model L6-GLUT4myc; test: Cytotoxicity (MTT reagent); type: cell-based, rat; details: HPH-15 1 μM, 10 μM or 50 μM, 24 hours
Method: It was examined whether using HPH-15 as a drug caused any cytotoxicity.
The myotube cell model L6-GLUT4myc, the liver cell model HepG2 cells, and the adipocyte model 3T3-L1 used in Example 1 were each seeded onto a 24-well plate (1×10^5 cells/well, […] of culture liquid) and cultured overnight. Then, a DMSO solution (1%) containing HPH-15 (final concentration: 1 μM, 10 μM or 50 μM) was added to the medium, and the cells were further cultured for 24 hours. As a control, only DMSO solution (1%) was added, and the cells were cultured for 24 hours in the same manner. Next, […] of MTT reagent (3-(4,5-dimethyl-2-thiazolyl)-2,5-diphenyl-2H-tetrazolium bromide: 1.1 mg/mL: Dojindo Laboratories) was added to each well, and the cells were further cultured for 4 hours. After collecting the precipitated crystals, the supernatant was removed and DMSO ([…]) was added to completely dissolve the crystals. Cytotoxicity was evaluated by measuring the absorbance (550 nm) of the solution and determining the number of viable cells.

herpes = details: Non-Patent Literature 2; cited from earlier work
[5] = system: myotube cell model L6-GLUT4myc, liver cell model HepG2 cells, adipocyte model 3T3-L1; test: Production of lactic acid in cells; type: cell-based, rat, human, mouse; details: HPH-15 10 μM or 50 μM vs metformin 2 mM; 24 hours
Method: There is a concern that a therapeutic drug of diabetes may cause lactic acidosis due to the production of lactic acid, requiring caution, especially for patients with chronic renal failure or the elderly. Therefore, the production of lactic acid when HPH-15 was used was examined.
The myotube cell model L6-GLUT4myc, the liver cell model HepG2 cells, and the adipocyte model 3T3-L1 used in Example 1 were each seeded onto a 24-well plate (1×10^5 cells/well, […] of culture liquid) and cultured overnight. Then, a DMSO solution (1%) containing HPH-15 (final concentration: 10 μM or 50 μM) or metformin (final concentration: 2 mM) was added to the medium, and the cells were further cultured for 24 hours. As a control, only DMSO solution (1%) was added, and the cells were cultured for 24 hours in the same manner. Next, the amount of lactic acid accumulated in the cells was measured using the Lactate Assay Kit-WST (Dojindo Laboratories).

[6] = compared with metformin 300 mg/kg

Structure (SMILES): CC(C)(C)SCCNC(=S)c1cccc(C(=S)NCCSC(C)(C)C)n1 [HPH-15]
- amount of GLUT4 localized in the membrane [1]: promoted membrane translocation of GLUT4 to the same extent as metformin or insulin
- toxicity (blood test) [2]: No toxicity was observed
- other blood test items ([2]; compared to olive oil): no differences were observed
- ALT value (blood test) [2, 6]: lower than that of metformin
- AST value (blood test) [2, 6]: significantly lower than those of metformin
- LD value (blood test) [2, 6]: significantly lower than those of metformin
- glucose metabolism (blood glucose levels, IAUC) after glucose loading [3]: significantly improved
- cytotoxicity (number of viable cells) [4]: no cytotoxicity was confirmed
- anti-herpes activity (herpes): has anti-herpes activity
- production of lactic acid [5]: equal to or less than that by metformin
